# System: tumor endothelial cells (LL/2 lung cancer tumor)
# Experiment: Lung LL2 ex vivo model of tumor angiogenesis
# Assay type: cell-based, mouse
# Settings: Mus musculus, Endothelial cell, 48 h, read-out: Cell death
# Experimental: This example describes a procedure to prepare a primary tumor angiogenesis model for assessing the efficacy of anti-cancer candidate agents.
# 1. The day before the experiment, spray all necessary tools with 70% ethanol and sterilize them under UV light overnight, including blade, dissecting and micro-dissecting scissors and […]. Place 24-well dishes at 4° C. to pre-chill plates and thaw Matrigel 24 hours before tumor dissection.
# 2. Spray 70% ethanol on working bench. Prepare two sterile petri dishes with 10 mL sterile PBS. Steps 3 and 4 are for mouse tumor models. For fresh human tumor, directly go to step 5.
# 3. Euthanize the tumor-bearing mice. Spray 70% ethanol on the mouse and remove the tumor using sterilized dissecting tools (avoid the fur). Rinse the tumor in petri dish with sterile PBS to remove ethanol and fur. Transfer the tumor to a new petri dish with PBS for dissection. Place the dish on ice.
# 4. Using pre-chilled sterile pipet tips to seed regular Matrigel in 24 well plates on ice. Matrigel (30 μL) is dropped in the middle of each well without touching the edge of the well (avoid introducing bubbles if possible).
# 5. Cut the tumor in halves using the sterile blade. Identify and isolate healthy tumor tissue that is not necrotic and is within the tumor capsule. Cut the healthy tumor tissue into small pieces. For instance, a suitable size for the tumor tissue is 0.5 mm (H)×0.5 mm (L)×0.3 mm (D) with a total volume of 0.075 mm^3.
# 6. Gently transfer and embed each tumor piece in the Matrigel drop in the 24-well plate. Place the embedded piece in the bottom and middle of each Matrigel drop. Keep the plate on ice all the time.
# 7. After seeding the tumor pieces, plates are incubated in a 37° C. cell culture incubator without medium for 10 minutes in order for the Matrigel to solidify.
# 8. Endothelial Growth Medium (0.5 mL) is added to each well and incubated at 37° C. with 5% CO2. Wait until the new endothelial cells have grown out of the tumor or are larger than 3 mm in diameter until treatment. This usually takes 4 days for the LL2 Lewis lung cancer model and 7 days for the CT26 colon cancer model. For human tumor models, the growth time is typically 2-3 weeks, depending on the tumor type. Media is changed every 4 days during prolonged culture. Typically, when the tumor tissue grows to 2 mm in diameter, it is good for drug testing. A size of about 3 mm in diameter can make visualization easier.
# 9. When the assay is ready to be analyzed for cell death (e.g., 48 hours after drug addition), prepare the dye mixture by mixing 6 μL of green dye to stain live cells (5 mg/mL Fluorescein diacetate or FDA in DMSO) with 30 μL of red dye (2.5 mg/mL Propidium iodide or PI in PBS) to stain dead cells in an Eppendorf tube. The FDA dye needs to be stored frozen in a −20° C. freezer because it has a labile ester bond.
# 10. Add 1 μL of the dye mixture to each well of the 24-well dish. It is usually performed one 24-well dish at a time given the amount of time needed to take pictures (the green dye is not as stable in the cells in the long term).
# 11. Gently rock the dish a few times to mix the dye with the media in the wells and incubate the dish at 37° C. for 10 min (too long incubation can make the green signal too intense).
# 12. Wash each well with 0.5 mL of sterile PBS and then add 0.5 mL of phenol red free SFM to each well. Alternatively 0.5 mL of regular Endothelial Cell Growth Media can be added to each well if this well needs to be continuously maintained after the experiment.
# 13. Look through all wells on an inverted microscope using the 2× objective lens to observe morphological changes.
# 14. Taking pictures in the red and green channels would allow not only the recording of the result but also more accurate quantitation of the result. To take pictures for all the wells, first pick a well that has robust red and green signals. […]
SMILES,cytotoxicity at 10 µM [%],cytotoxicity at 20 µM [%],cytotoxicity at 40 µM [%]
"CCCCCCCOc1ccc(S(=O)(=O)c2cnc3ccc([S+](C)[O-])cc3c2N2CCC(N3CCC(O)(c4ccccc4)CC3)CC2)cc1 (centres unmarked) [compound 263, 1′-(3-((4-(heptyloxy)phenyl)sulfonyl)-6-(methylsulfinyl)quinolin-4-yl)-4-phenyl-[1,4′-bipiperidin]-4-ol]",100,,
"CCCCCCCCCCCCCCOc1ccc(S(=O)(=O)c2cnc3ccc([S+](C)[O-])cc3c2N2CCC(N3CCC(N4CCN(C)CC4)CC3)CC2)cc1F (centres unmarked) [compound 371, 3-((3-fluoro-4-(tetradecyloxy)phenyl)sulfonyl)-4-(4-(4-methylpiperazin-1-yl)-[1,4′-bipiperidin]-1′-yl)-6-(methylsulfinyl)quinoline]",,30,
"CCCCCCCOc1ccc(S(=O)(=O)c2cnc3ccc(SC)cc3c2N2CCN(CC3CCN(Cc4ccccc4)CC3)CC2)cc1 [compound 275, 4-(4-((1-benzylpiperidin-4-yl)methyl)piperazin-1-yl)-3-((4-(heptyloxy)phenyl)sulfonyl)-6-(methylthio)quinoline]",,5,
"CCCCOc1ccc(S(=O)(=O)c2cnc3ccc(SC)cc3c2N2CCC(N3CCSCC3)CC2)cc1 [compound 243, 4-(1-(3-((4-butoxyphenyl)sulfonyl)-6-(methylthio)quinolin-4-yl)piperidin-4-yl)thiomorpholine]",,,20
"CCCCOc1ccc(S(=O)(=O)c2cnc3ccc(SC)cc3c2N2CCC(N3CCC(O)(c4ccccc4)CC3)CC2)cc1 [compound 232, 1′-(3-((4-butoxyphenyl)sulfonyl)-6-(methylthio)quinolin-4-yl)-4-phenyl-[1,4′-bipiperidin]-4-ol]",,,10
"CCCCOc1ccc(S(=O)(=O)c2cnc3ccc(SC)cc3c2N2CCC(N3CCCN(C)CC3)CC2)cc1 [compound 234, 3-((4-butoxyphenyl)sulfonyl)-4-(4-(4-methyl-1,4-diazepan-1-yl)piperidin-1-yl)-6-(methylthio)quinoline]",,,100
"CCCCOc1ccc(S(=O)(=O)c2cnc3ccc(S(C)(=O)=O)cc3c2N2CCC(N3CCCCC3)CC2)cc1 [compound 169, 4-([1,4′-bipiperidin]-1′-yl)-3-((4-butoxyphenyl)sulfonyl)-6-(methylsulfonyl)quinoline]",,40,
"CCCCCCCCCCCCCCCCOc1ccc(S(=O)(=O)c2cnc3ccc([S+](C)[O-])cc3c2N2CCC(N3CCC(N4CCCCC4)CC3)CC2)cc1 (centres unmarked) [compound 377, 4-([1,4′:1′,4″-terpiperidin]-1″-yl)-3-((4-(hexadecyloxy)phenyl)sulfonyl)-6-(methylsulfinyl)quinoline]",,10,
"CCCCCCCCCCCCCCOc1ccc(S(=O)(=O)c2cnc3ccc([S+](C)[O-])cc3c2N2CCC(N3CCN(CCO)CC3)CC2)cc1F (centres unmarked) [compound 365, 2-(4-(1-(3-((3-fluoro-4-(tetradecyloxy)phenyl)sulfonyl)-6-(methylsulfinyl)quinolin-4-yl)piperidin-4-yl)piperazin-1-yl)ethanol]",,20,
"CCCCOc1ccc(S(=O)(=O)c2cnc3ccc(C(=O)OCC)cc3c2N2CCC(N3CCC(CO)CC3)CC2)cc1 [compound 178, ethyl 3-((4-butoxyphenyl)sulfonyl)-4-(4-(hydroxymethyl)-[1,4′-bipiperidin]-1′-yl)quinoline-6-carboxylate]",,,100
"CCCCOc1ccc(S(=O)(=O)c2cnc3ccc([S+](C)[O-])cc3c2N2CCC(N3CCSCC3)CC2)cc1 (centres unmarked) [compound 245, 4-(1-(3-((4-butoxyphenyl)sulfonyl)-6-(methylsulfinyl)quinolin-4-yl)piperidin-4-yl)thiomorpholine]",,,40
"CCCCCCCCCCCCCCOc1ccc(S(=O)(=O)c2cnc3ccc([S+](C)[O-])cc3c2N2CCC(N3CCC(N4CCC(O)CC4)CC3)CC2)cc1F (centres unmarked) [compound 373, 1″-(3-((3-fluoro-4-(tetradecyloxy)phenyl)sulfonyl)-6-(methylsulfinyl)quinolin-4-yl)-[1,4′:1′,4″- terpiperidin]-4-ol]",,20,
"CCN(c1c(S(=O)(=O)c2ccc(OC)cc2)cnc2cc(OC)c(OC)cc12)C(C)C [compound 294, N-ethyl-N-isopropyl-6,7-dimethoxy-3-((4-methoxyphenyl)sulfonyl)quinolin-4-amine]",,,50
"CCOC(=O)c1ccc2ncc(S(=O)(=O)c3ccc(OC)cc3)c(N3CCC(N4CCC(CO)CC4)CC3)c2c1 [compound 175, ethyl 4-(4-(hydroxymethyl)-[1,4′-bipiperidin]-1′-yl)-3-((4-methoxyphenyl)sulfonyl)quinoline-6-carboxylate]",,,30
"CC(C)CCCC(C)CCOc1ccc(S(=O)(=O)c2cnc3ccc([S+](C)[O-])cc3c2N2CCC(N3CCN(CCO)CC3)CC2)cc1 (centres unmarked) [compound 284, 2-(4-(1-(3-((4-((3,7-dimethyloctyl)oxy)phenyl)sulfonyl)-6-(methylsulfinyl)quinolin-4-yl)piperidin-4-yl)piperazin-1-yl)ethan-1-ol]",10,,
"CCCCOc1ccc(S(=O)(=O)c2cnc3ccc(SC)cc3c2N2CCC(N3CCOCC3)CC2)cc1 [compound 229, 4-(1-(3-((4-butoxyphenyl)sulfonyl)-6-(methylthio)quinolin-4-yl)piperidin-4-yl)morpholine]",,,30
"CCCCCCCCCCCCOc1ccc(S(=O)(=O)c2cnc3ccc([S+](C)[O-])cc3c2N2CCC(N3CCC(N4CCCC(O)C4)CC3)CC2)cc1 (centres unmarked) [compound 343, 1″-(3-((4-(dodecyloxy)phenyl)sulfonyl)-6-(methylsulfinyl)quinolin-4-yl)-[1,4′:1′,4″-terpiperidin]-3-ol]",,50,
"CCCCOc1ccc(S(=O)(=O)c2cnc3ccc(C(=O)OCC)cc3c2N2CCS(=O)(=O)CC2)cc1 [compound 196, ethyl 3-((4-butoxyphenyl)sulfonyl)-4-(1,1-dioxidothiomorpholino)quinoline-6-carboxylate]",,,30
"CCOC(=O)c1ccc2ncc(S(=O)(=O)c3ccc(OC)cc3)c(-n3cnnn3)c2c1 [compound 185, ethyl 3-((4-methoxyphenyl)sulfonyl)-4-(1H-tetrazol-1-yl)quinoline-6-carboxylate]",30,,
"CCCCOc1ccc(S(=O)(=O)c2cnc3ccc(OC(F)(F)F)cc3c2N2CC[S+]([O-])CC2)cc1 [compound 197, 4-(3-((4-butoxyphenyl)sulfonyl)-6-(trifluoromethoxy)quinolin-4-yl)thiomorpholine 1-oxide]",,,20
"CCc1ccc(S(=O)(=O)c2cnc3ccc(OC(F)(F)F)cc3c2N2CCC(N(CC)CC)CC2)cc1 [compound 103, N,N-diethyl-1-(3-((4-ethylphenyl)sulfonyl)-6-(trifluoromethoxy)quinolin-4-yl)piperidin-4-amine]",,10,
"CCCCOc1ccc(S(=O)(=O)c2cnc3ccc(C(=O)OCC)cc3c2N2CCC(N3CCSCC3)CC2)cc1 [compound 217, ethyl 3-((4-butoxyphenyl)sulfonyl)-4-(4-thiomorpholinopiperidin-1-yl)quinoline-6-carboxylate]",,,30
"CCCCCCCCCCCCCCOc1ccc(S(=O)(=O)c2cnc3ccc([S+](C)[O-])cc3c2N2CCC(N3CCC(N4CCC(O)CC4)CC3)CC2)cc1 (centres unmarked) [compound 375, 1″-(6-(methylsulfinyl)-3-((4-(tetradecyloxy)phenyl)sulfonyl)quinolin-4-yl)-[1,4′:1′,4″-terpiperidin]-4-ol]",,50,
